Results reported in patent publication US20230053342A1, “IMIDAZOLIDINONE COMPOUND, PREPARATION METHOD THEREFOR AND USE THEREOF” (BETTA PHARMACEUTICALS CO., LTD, priority 2019, published 2023).

Key:
human tumor cells HGC27 = assay: Cell proliferation assay (CellTiter Glo), HGC27; assay type: cell-based; conditions: HGC-27, HGC27 cells incubated for 96 h, read-out: IC50(μM) of ompound on HGC-27cell
Description: (§1) Method: The anti-proliferative effects on human tumor cells MCF-7 and HGC27 of certain compounds of the present invention were evaluated by CellTiter Glo assay.
(§2) Detection method: MCF-7 cells were suspended in DMEM culture medium, the cell concentration of which was adjusted to 25000 cells/mL; HGC27 cells were suspended in RPMI-1640 culture medium, the cell concentration of which was adjusted to 5000 cells/mL. 100 μL of cell suspension was dispensed to a 96-well assay plate and placed in a CO2 incubator overnight. The tested compounds were dissolved in DMSO, and 3-fold derail dilution was performed to obtain 10-point concentrations. the 10-point concentrations of the tested compounds or or negative control was transferred to the well containing 100 μL of culture medium respectively, incubated at 37° C., 5% CO2, the HGC27 cells were incubated for 96 h, MCF-7 cells were incubated for 120 h. Then 100 μL of CellTiter-Glo agent was added to the above-mentioned 96-well assay plate, incubated at room temperature for 10 minutes to allow stable luminescence signal. VICTOR™ X5 instrument was used to record RLU (relative luminescence unit), and then calculate the IC50 values were calculated.
(§3) Compound inhibition rate(% inh)=100% −(tested compound RLU-blank control RLU)/(negative control RLU-blank control RLU)*100%
(§4) Blank control: blank culture medium, with no compound or cell;
(§5) The IC50 (half inhibitory concentration) of the compound was obtained using the following nonlinear fitting formula:
(§6) Y=minimum inhibition rate+(max inhibition rate-minimum inhibition rate)/(1+10^((Log IC50−X)*slope)); wherein, X: the log value of the concentration of the tested compound; Y: the inhibition rate of the tested compound(% inh).

PI3Kγ = PI3Kγ (Homo sapiens, UniProt P48736); assay: Kinase experiment (ADP-Glo, luminescence), PI3Kγ; assay type: biochemical; conditions: final concentration of ATP 10 μM; read-out: IC50 of compound to PI3K (nM) γ
Chain of PI3Kγ (P48736 whole entry): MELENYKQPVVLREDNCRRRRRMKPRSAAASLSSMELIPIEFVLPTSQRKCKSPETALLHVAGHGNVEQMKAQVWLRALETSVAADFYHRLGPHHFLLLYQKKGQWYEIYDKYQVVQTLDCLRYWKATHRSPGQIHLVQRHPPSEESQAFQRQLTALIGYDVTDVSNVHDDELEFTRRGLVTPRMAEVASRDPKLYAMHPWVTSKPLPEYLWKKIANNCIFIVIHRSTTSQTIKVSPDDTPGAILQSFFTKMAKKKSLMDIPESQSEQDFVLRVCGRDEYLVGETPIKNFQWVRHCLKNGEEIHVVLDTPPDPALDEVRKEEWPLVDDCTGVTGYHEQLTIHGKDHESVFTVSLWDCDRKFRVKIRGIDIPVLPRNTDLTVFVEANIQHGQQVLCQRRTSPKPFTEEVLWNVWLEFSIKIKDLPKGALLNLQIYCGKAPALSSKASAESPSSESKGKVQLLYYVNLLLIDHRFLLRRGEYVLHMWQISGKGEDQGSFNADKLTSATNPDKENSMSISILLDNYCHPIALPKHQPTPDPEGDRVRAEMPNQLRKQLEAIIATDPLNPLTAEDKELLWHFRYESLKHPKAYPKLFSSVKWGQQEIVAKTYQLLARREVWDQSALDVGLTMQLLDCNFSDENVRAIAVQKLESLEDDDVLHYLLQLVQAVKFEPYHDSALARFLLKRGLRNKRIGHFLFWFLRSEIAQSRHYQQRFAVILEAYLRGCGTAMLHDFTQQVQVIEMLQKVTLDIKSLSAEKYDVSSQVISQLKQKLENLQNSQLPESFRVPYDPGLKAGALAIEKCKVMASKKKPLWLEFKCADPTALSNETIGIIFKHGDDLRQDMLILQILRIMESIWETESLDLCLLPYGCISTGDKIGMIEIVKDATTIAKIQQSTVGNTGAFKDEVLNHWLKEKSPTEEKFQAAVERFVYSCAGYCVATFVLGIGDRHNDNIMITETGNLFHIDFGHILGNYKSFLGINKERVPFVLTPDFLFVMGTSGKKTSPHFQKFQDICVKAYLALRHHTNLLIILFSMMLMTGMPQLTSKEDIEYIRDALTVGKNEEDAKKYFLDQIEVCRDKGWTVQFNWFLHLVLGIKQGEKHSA
Description: (§7) PI3Kα, PI3Kβ, PI3Kγ kinases undergo enzymatic reactions with their substrates ATP and PIP2:3PS, the amount of the product detected by ADP-Glo agent and luminescence method were used to reflect the enzymatic activities of PI3Kα, PI3Kβ, PI3Kγ (the final concentration of ATP is 10 μM). The above methods were used to test the inhibitory activity of certain compound of the present invention on PI3Kα, PI3Kβ and PI3Kγ kinase.
(§8) Agent: Basic kinase buffer (pH 7.5); PI3Kα, PI3Kβ, PI3Kγ kinase solutions; PIP2:3PS and ATP solutions; ADP-Glo kit (containing 10 mM MgCl2).
(§9) Wherein, the buffer composition: 50 mM Hepes (pH 7.2-7.5), 3 mM MgCl2, 1 mM EGTA, 0.03% CHAPS, 100 mM NaCl, 2 mM DTT; • Compound preparation: The tested compound was diluted to a specific concentration with 100% DMSO. • Process: 1) PI3Kα, PI3Kβ, or PI3Kγ protein solution were dispensed to a 384-well assay plate (6008280, PerkinElmer), and centrifuged at 1000 rpm for 1 minute. • 2) Tested compound, negative control DMSO or positive control BYL719 was dispensed to the above-mentioned 384-well assay plate with the kinase, centrifuged at 1000 rpm for 1 min, and incubated at 25° C. for 15 mins. • 3) PIP2:3PS&ATP solution was added to the above-mentioned 384-well assay plate, centrifuged at 1000 rpm for 1 min, incubated at 25° C. for 60 mins. • 4) 5 μL of ADP-Glo agent (10 mM MgCl2 contained) was transferred to the 384-well assay plate, centrifuged at 1000 rpm for 1 min, incubated at 25° C. for 40 mins. • 5) 10 μL of Detection agent was transferred to the 384-well assay plate, centrifuged at 1000 rpm for 1 min, incubated at 25° C. for 40 mins. • 6) RLU (Relative luminescence unit) value was measured by Envision multifunctional plate reader. The RLU value was used to characterize the degree of reaction between the enzyme and the substrate, and calculate the IC50 value. • 7) Data analysis:
(§10) Compound inhibition rate(% inh)=(negative control RLU-tested compound RLU)/(negative control RLU-positive control RLU)*100%
as §5
(§11) Y=minimum inhibition rate+(max inhibition rate-minimum inhibition rate)/(1+10^((Log IC50−X)*slope)); wherein, X is the log value of the concentration of the tested compound, Y is the inhibition rate of tested compound(% inh).

PI3Kβ = PI3Kβ (Homo sapiens, UniProt P42338); assay: Kinase experiment (ADP-Glo, luminescence), PI3Kβ; assay type: biochemical; conditions: final concentration of ATP 10 μM; read-out: IC50 of compound to PI3K (nM) β
Chain of PI3Kβ (P42338 whole entry): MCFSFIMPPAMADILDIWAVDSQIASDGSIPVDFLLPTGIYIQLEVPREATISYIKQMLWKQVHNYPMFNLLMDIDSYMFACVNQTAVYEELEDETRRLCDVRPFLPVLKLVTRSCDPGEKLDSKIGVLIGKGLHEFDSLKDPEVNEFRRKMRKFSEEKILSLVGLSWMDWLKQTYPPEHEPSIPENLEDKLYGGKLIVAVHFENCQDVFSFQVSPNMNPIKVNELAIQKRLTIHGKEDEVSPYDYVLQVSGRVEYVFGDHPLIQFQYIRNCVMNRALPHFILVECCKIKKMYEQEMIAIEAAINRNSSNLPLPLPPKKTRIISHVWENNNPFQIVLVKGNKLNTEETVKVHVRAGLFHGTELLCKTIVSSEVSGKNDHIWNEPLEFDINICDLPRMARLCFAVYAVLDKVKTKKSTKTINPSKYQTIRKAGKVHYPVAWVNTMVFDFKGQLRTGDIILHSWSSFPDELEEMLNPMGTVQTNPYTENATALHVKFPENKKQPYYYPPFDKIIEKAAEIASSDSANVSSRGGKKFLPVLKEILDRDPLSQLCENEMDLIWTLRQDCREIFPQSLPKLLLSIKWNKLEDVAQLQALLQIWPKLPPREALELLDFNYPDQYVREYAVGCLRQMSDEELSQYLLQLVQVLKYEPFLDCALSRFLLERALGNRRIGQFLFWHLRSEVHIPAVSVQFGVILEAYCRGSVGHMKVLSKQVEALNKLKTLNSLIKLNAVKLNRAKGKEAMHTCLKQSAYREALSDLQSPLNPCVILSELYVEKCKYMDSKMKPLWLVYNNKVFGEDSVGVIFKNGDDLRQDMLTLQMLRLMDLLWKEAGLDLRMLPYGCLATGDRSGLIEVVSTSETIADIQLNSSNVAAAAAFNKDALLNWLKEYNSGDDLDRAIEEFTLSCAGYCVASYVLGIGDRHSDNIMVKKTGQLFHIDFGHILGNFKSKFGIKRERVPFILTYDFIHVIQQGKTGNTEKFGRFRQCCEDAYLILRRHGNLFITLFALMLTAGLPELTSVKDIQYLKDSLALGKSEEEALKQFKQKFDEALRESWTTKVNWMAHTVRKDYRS
Chain of PI3Kβ (P27986 whole entry partner): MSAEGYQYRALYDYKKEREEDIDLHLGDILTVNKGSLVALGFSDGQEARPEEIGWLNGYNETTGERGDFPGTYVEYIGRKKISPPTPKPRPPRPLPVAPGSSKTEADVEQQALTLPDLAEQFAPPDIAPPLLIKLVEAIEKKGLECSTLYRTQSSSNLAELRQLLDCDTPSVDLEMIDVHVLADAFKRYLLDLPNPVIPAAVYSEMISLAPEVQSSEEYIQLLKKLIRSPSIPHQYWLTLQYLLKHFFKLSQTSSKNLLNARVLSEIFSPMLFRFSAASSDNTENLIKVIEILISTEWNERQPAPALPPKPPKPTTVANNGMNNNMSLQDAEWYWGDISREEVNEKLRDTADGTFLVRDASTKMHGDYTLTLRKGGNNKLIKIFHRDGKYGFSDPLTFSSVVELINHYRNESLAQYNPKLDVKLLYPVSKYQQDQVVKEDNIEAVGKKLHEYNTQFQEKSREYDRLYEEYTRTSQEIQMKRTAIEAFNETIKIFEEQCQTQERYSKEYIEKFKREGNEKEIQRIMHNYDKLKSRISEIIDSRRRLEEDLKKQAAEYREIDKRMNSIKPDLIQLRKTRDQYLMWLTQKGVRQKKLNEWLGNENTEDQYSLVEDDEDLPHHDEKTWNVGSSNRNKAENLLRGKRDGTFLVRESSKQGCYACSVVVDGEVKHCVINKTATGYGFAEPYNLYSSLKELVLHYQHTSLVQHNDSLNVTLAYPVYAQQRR
Description: as §7, §8, §9, §10, §5, §11

[1] = Pharmacokinetic test in male SD rats; assay type: in vivo; conditions: rat, plasma
Description: Method: 42 male SD rats, weight: 150-300 g. Divided into 7 groups randomly, with 6 rats in each group. Among the 6 rats in each group, three of them were administrated a single intravenous injection of […] of the example compound, the other three were given intragastric administration of […] of the example compound, blood was collected from the orbital venous plexus at designated time points, plasma was separated, and stored in a −80° C. refrigerator for later use.
The protein of the resultant plasma was precipitated by acetonitrile, the supernatant was extracted, and mixed with water at the ratio of 1:1, took 10 μL of which for LC-MS/MS detection, and calculated the average was calculated.

human tumor cells MCF-7 = assay: Cell proliferation assay (CellTiter Glo), MCF-7; assay type: cell-based; conditions: MCF7, MCF-7 cells incubated for 120 h, read-out: IC50(μM) of compound on MCF cell
Description: as §1, §2, §3, §4, §5, §6

PI3Kα = PI3Kα (Homo sapiens, UniProt P42336); assay: Kinase experiment (ADP-Glo, luminescence), PI3Kα; assay type: biochemical; conditions: final concentration of ATP 10 μM; read-out: IC50 of compound to PI3K (nM) α
Chain of PI3Kα (P42336 whole entry): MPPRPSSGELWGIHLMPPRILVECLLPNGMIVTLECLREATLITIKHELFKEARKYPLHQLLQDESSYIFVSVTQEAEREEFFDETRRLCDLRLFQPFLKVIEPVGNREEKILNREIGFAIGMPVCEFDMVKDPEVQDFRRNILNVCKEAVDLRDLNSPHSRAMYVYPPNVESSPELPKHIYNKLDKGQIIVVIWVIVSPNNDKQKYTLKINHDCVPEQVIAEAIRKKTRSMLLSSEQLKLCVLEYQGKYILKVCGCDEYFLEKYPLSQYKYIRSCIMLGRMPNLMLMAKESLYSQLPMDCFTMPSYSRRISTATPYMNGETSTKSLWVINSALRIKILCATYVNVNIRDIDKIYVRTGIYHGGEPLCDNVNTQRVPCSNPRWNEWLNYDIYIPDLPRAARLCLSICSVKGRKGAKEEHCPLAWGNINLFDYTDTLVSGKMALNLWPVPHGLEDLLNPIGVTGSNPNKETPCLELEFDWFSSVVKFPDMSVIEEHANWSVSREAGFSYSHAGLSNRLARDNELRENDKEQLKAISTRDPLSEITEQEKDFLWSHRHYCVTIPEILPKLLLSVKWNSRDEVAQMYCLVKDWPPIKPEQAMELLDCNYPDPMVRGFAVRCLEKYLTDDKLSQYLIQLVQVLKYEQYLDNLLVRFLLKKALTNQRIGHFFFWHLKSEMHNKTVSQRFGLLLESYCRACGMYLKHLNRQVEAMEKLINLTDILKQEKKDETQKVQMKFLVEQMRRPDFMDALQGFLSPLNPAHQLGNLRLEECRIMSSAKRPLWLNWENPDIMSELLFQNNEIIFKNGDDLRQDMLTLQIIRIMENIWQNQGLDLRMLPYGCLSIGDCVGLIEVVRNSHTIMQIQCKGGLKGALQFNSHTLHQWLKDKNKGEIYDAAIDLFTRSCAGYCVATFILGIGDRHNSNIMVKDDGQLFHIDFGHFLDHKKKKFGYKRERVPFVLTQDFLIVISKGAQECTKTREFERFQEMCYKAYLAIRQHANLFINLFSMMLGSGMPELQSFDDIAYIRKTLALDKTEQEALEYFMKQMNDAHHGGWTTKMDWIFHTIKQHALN
Chain of PI3Kα (P27986 whole entry partner): as the sequence (P27986 whole entry partner) above
Description: as §7, §8, §9, §10, §5, §11

IC50 (human tumor cells HGC27): 0.267 µM | IC50 (PI3Kγ): > 600 nM | IC50 (PI3Kβ): > 600 nM | clearance ([1]; intravenous injection, 2 mg/kg): 11.1 mL/min/kg | AUC ([1]; po, gavage, 10 mg/kg): 19800 ng·h/mL | Cmax ([1]; po, gavage, 10 mg/kg): 1600 ng/mL | IC50 (human tumor cells MCF-7): 0.047 µM | IC50 (PI3Kα): < 5 nM
SMILES: CC(C)[C@H]1C(=O)N(C2CC2)C(=O)N1c1cn2c(n1)-c1ccc(N3CCC[C@H]3C(N)=O)cc1OCC2 [Example 33, (2S)-1-(2-((5S)-3-cyclopropyl-5-isopropyl-2,4-dioxoimidazolidin-1-yl)-5,6-dihydrobenzo[f]imidazo[1,2-d] [1,4]oxazepin-9-yl)pyrrolidine-2-carboxamide]
